Tested on: HaCaT cells
Experiment: Relief of 5-FU proliferative toxicity to HaCaT cells (CCK-8 cell survival)
Type: cell-based
Details: for Cell Survival Rate (increased percentage of cell survival compared with the Group of 5-FU): 5-Fu 20 μM, HaCaT cells; for activation at 1 µM: compound 1 μM; for activation at 10 µM: compound 10 μM; for activation at 100 µM: compound 100 μM; for activation at 500 µM: compound 500 μM; for activation at 1000 µM: compound 1000 μM; for activation at 5 µM: compound 5 μM; for activation at 50 µM: compound 50 μM; for activation at 200 µM: compound 200 μM
Protocol: The cultured skin cell HaCaTs were digested, counted, and inoculated into a 96-well plate with 5000-10000 cells in each well. After 24 h of culture, the wells were divided into Group of blank solvent control, Group of 5-FU, Group of 5-FU+thymidine derivative, Group of 5-FU+the combination of thymidine derivative and uridine derivative. […] adding a solution of 5-FU and a solution of thymidine derivative (the final concentrations of 5-FU and thymidine derivative are shown in Table 3, the solution of thymidine is an aqueous solution, while the solutions of thymidine derivatives are all DMSO solutions); Group of 5-FU+the combination of thymidine derivative and uridine derivative: adding a solution of 5-FU and a mixed solution of thymidine derivative and uridine derivative (the final concentrations of the solution of 5-FU and the mixed solution of thymidine derivative+uridine derivative are shown in Table 3, the solution of thymidine is an aqueous solution, while the mixed solutions of thymidine derivative+uridine derivative are all DMSO solutions); Group of blank solvent control: adding the same type of solution as those of the corresponding Group of 5-FU or Group of 5-FU+thymidine derivative (or the mixed solution of thymidine derivative+uridine derivative) in equal volume. Group of blank solvent control was used as control to exclude the influence of the solvents in Group of 5-FU and Group of 5-FU+thymidine derivative (or the mixed solution of thymidine derivative+uridine derivative) on the results. After additional 48 hours of culture, a Cell Counting Kit-8 (CCK-8) detection kit (C0037, purchased from Shanghai Beyotime Biotechnology) is used to determine the cell survival rate, thereby calculating the proliferative toxicity of 5-Fu/5-DFUR on cells and the relieving effect of the thymidine derivative (or the mixed solution of thymidine derivative+uridine derivative) on the proliferative toxicity. Using GraphPad Prism 6.0 software, the results were statistically analyzed by t-test and plotted.
(§1) Table 3 lists the combinations of 5-FU and thymidine derivative (or the mixed solution of thymidine derivative+uridine derivative), and the corresponding experimental results (wherein the data in the column of cell survival indicate the corresponding increased percentage of the cell survivals of Group of 5-FU+thymidine derivative or Group of 5-FU+the combination of thymidine derivative and uridine derivative compared with the Group of 5-FU). FIGS. 3-10 list the experimental results of several representative compounds.
The effect of thymidine derivative or a combination of thymidine derivative and uridine derivative on relieving the proliferative toxicity of a chemotherapeutical drug (5-FU) to HaCaT cells was tested according to the method in Examples 2-29. The test thymidine derivative or the combination of thymidine derivative and uridine derivative, as well as the final concentration of the test compounds were shown in Table 7.
as §1, with “7” for “3”, “15-21” for “3-10”, “exemplary” for “representative”

[1] = selected compound final concentration 12.5 μM
[2] = selected compound final concentration 25 μM
[3] = selected compound final concentration 50 μM
[4] = Homo sapiens, HaCaT, increase vs Group of 5-FU, 5-FU 20 μM, 48 h, read-out: Cell Survival Rate
[5] = selected compound final concentration 0.8 μM
[6] = selected compound final concentration 1.6 μM
[7] = selected compound final concentration 3.13 μM
[8] = selected compound final concentration 6.25 μM

In the case of `Cc1cn([C@H]2C[C@H](O)[C@@H](COC(=O)C3CCn4c(C(=O)c5ccccc5)ccc43)O2)c(=O)[nH]c1=O` (stereo partly shown) [T34], the “Cell Survival Rate (increased percentage of cell survival compared with the Group of 5-FU)” value [1] is reported as 28%-35%, the “Cell Survival Rate (increased percentage of cell survival compared with the Group of 5-FU)” value [2] is reported as 43%-51% and the “Cell Survival Rate (increased percentage of cell survival compared with the Group of 5-FU)” value [3] is reported as 69%-77%. The “Cell Survival Rate (increased percentage of cell survival compared with the Group of 5-FU)” value (selected compound final concentration 100 μM) was 67%-74%.

For `Cc1cn([C@H]2C[C@H](OC(=O)Nc3ccccc3)[C@@H](COC(=O)Nc3ccccc3)O2)c(=O)[nH]c1=O` [T16], the activation at 1 µM [4] was 0 to 5% and the activation at 10 µM [4] was 7 to 14%.

Work on `Cc1cn([C@H]2C[C@H](OC(=O)OC(C)(C)C)[C@@H](COC(=O)OC(C)(C)C)O2)c(=O)[nH]c1=O` [T23] yielded an activation at 1 µM [4] of 2 to 7%, an activation at 10 µM [4] of 5 to 11% and an activation at 100 µM [4] of 20 to 26%.

Work on `Cc1cn([C@H]2C[C@H](OC(=O)NC3CC3)[C@@H](COC(=O)NC3CC3)O2)c(=O)[nH]c1=O` [T15] yielded an activation at 1 µM [4] of 13 to 20%, an activation at 10 µM [4] of 13 to 20% and an activation at 100 µM [4] of 20 to 30%. For the same compound, the activation at 500 µM [4] was 25 to 35% and the activation at 1000 µM [4] was 9 to 16%.

For `Cc1cn([C@H]2C[C@H](OC(=O)Cc3ccccc3)[C@@H](COC(=O)Cc3ccccc3)O2)c(=O)[nH]c1=O` [T10], the activation at 1 µM [4] was 5 to 10%, the activation at 2 µM (Homo sapiens, HaCaT, increase vs Group of 5-FU, 5-FU 20 μM, compound 2 μM, 48 h, read-out: Cell Survival Rate) was 14 to 22% and the activation at 5 µM [4] was 35 to 45%. For the same compound, the activation at 10 µM [4] was 60 to 70%, the activation at 20 µM (Homo sapiens, HaCaT, increase vs Group of 5-FU, 5-FU 20 μM, compound 20 μM, 48 h, read-out: Cell Survival Rate) was 65 to 75% and the activation at 50 µM [4] was 65 to 75%.

`Cc1cn([C@H]2C[C@H](OC(=O)C3CC3)[C@@H](COC(=O)C3CC3)O2)c(=O)[nH]c1=O` [T9] showed an activation at 1 µM [4] of -10 to -3%, an activation at 10 µM [4] of 10 to 18% and an activation at 50 µM [4] of 24 to 31%. For the same compound, the activation at 200 µM [4] was 27 to 34%, the activation at 500 µM [4] was 30 to 38% and the activation at 1000 µM [4] was 35 to 40%. The activation at 1500 µM (Homo sapiens, HaCaT, increase vs Group of 5-FU, 5-FU 20 μM, compound 1500 μM, 48 h, read-out: Cell Survival Rate) was 13 to 20%.

In the case of `Cc1cn([C@H]2C[C@H](OC(=O)C3CCCC3)[C@@H](COC(=O)C3CCCC3)O2)c(=O)[nH]c1=O` [T8], the activation at 1 µM [4] is reported as 15 to 25%, the activation at 5 µM [4] is reported as 27 to 37% and the activation at 10 µM [4] is reported as 35 to 45%. It also gave an activation at 50 µM [4] of 32 to 39%, an activation at 100 µM [4] of 40 to 47% and an activation at 200 µM [4] of 3 to 9%.

For `Cc1cn([C@H]2C[C@H](O)[C@@H](COC(=O)OCc3ccccc3)O2)c(=O)[nH]c1=O` [T19], the activation at 1 µM [4] was 35 to 45%, the activation at 10 µM [4] was 60 to 70% and the activation at 100 µM [4] was 58 to 67%. It also gave an activation at 500 µM [4] of 35 to 45%.

Compound `Cc1cn([C@H]2C[C@H](OC(=O)NC3CCCC3)[C@@H](COC(=O)NC3CCCC3)O2)c(=O)[nH]c1=O` [T12] has an activation at 1 µM [4] of 0 to 5% and an activation at 10 µM [4] of 9 to 16%.

With `Cc1cn([C@H]2C[C@H](OC(=O)Oc3ccccc3)[C@@H](COC(=O)Oc3ccccc3)O2)c(=O)[nH]c1=O` [T14] the activation at 1 µM [4] was 12 to 20%, the activation at 10 µM [4] was 30 to 40% and the activation at 100 µM [4] was 8 to 15%.

For `Cc1cn([C@H]2C[C@H](OC(=O)[C@@H](C)c3ccc(CC(C)C)cc3)[C@@H](COC(=O)[C@@H](C)c3ccc(CC(C)C)cc3)O2)c(=O)[nH]c1=O` [T47], the “Cell Survival Rate (increased percentage of cell survival compared with the Group of 5-FU)” value (selected compound final concentration 8 μM) was 21%-28%, the “Cell Survival Rate (increased percentage of cell survival compared with the Group of 5-FU)” value (selected compound final concentration 16 μM) was 35%-42% and the “Cell Survival Rate (increased percentage of cell survival compared with the Group of 5-FU)” value (selected compound final concentration 32 μM) was 49%-56%. For the same compound, the “Cell Survival Rate (increased percentage of cell survival compared with the Group of 5-FU)” value (selected compound final concentration 62.5 μM) was 63%-71%, the “Cell Survival Rate (increased percentage of cell survival compared with the Group of 5-FU)” value (selected compound final concentration 125 μM) was 64%-72% and the “Cell Survival Rate (increased percentage of cell survival compared with the Group of 5-FU)” value (selected compound final concentration 250 μM) was 44%-51%. For the same compound, the “Cell Survival Rate (increased percentage of cell survival compared with the Group of 5-FU)” value (selected compound final concentration 500 μM) was 24%-31%.

For `Cc1cn([C@H]2C[C@H](OC(=O)OCC(C)(C)C)[C@@H](COC(=O)OCC(C)(C)C)O2)c(=O)[nH]c1=O` [T21], the activation at 1 µM [4] was 5 to 13% and the activation at 10 µM [4] was 19 to 26%.

In the case of `COc1ccc2cc([C@H](C)C(=O)O[C@H]3C[C@H](n4cc(C)c(=O)[nH]c4=O)O[C@@H]3CO)ccc2c1` [T42], the “Cell Survival Rate (increased percentage of cell survival compared with the Group of 5-FU)” value [5] is reported as 38%-45%, the “Cell Survival Rate (increased percentage of cell survival compared with the Group of 5-FU)” value [6] is reported as 59%-67% and the “Cell Survival Rate (increased percentage of cell survival compared with the Group of 5-FU)” value [7] is reported as 85%-93%. The “Cell Survival Rate (increased percentage of cell survival compared with the Group of 5-FU)” value [8] was 85%-92%, the “Cell Survival Rate (increased percentage of cell survival compared with the Group of 5-FU)” value [1] was 58%-66% and the “Cell Survival Rate (increased percentage of cell survival compared with the Group of 5-FU)” value [2] was 68%-75%. The “Cell Survival Rate (increased percentage of cell survival compared with the Group of 5-FU)” value [3] was 66%-74%.

With `Cc1cn([C@H]2C[C@H](O)[C@@H](CO[Si](C)(C)C(C)(C)C)O2)c(=O)[nH]c1=O` [T18] the activation at 1 µM [4] was 6 to 12% and the activation at 10 µM [4] was 7 to 15%.

For `Cc1cn([C@H]2C[C@H](O)[C@@H](COC(=O)[C@H](C)c3ccc(-c4ccccc4)c(F)c3)O2)c(=O)[nH]c1=O` [T29], the “Cell Survival Rate (increased percentage of cell survival compared with the Group of 5-FU)” value [5] was 19%-25%, the “Cell Survival Rate (increased percentage of cell survival compared with the Group of 5-FU)” value [6] was 19%-27% and the “Cell Survival Rate (increased percentage of cell survival compared with the Group of 5-FU)” value [7] was 35%-42%. For the same compound, the “Cell Survival Rate (increased percentage of cell survival compared with the Group of 5-FU)” value [8] was 43%-50%, the “Cell Survival Rate (increased percentage of cell survival compared with the Group of 5-FU)” value [1] was 69%-76% and the “Cell Survival Rate (increased percentage of cell survival compared with the Group of 5-FU)” value [2] was 54%-62%. The “Cell Survival Rate (increased percentage of cell survival compared with the Group of 5-FU)” value [3] was 48%-54%.

In the case of `Cc1cn([C@H]2C[C@H](O)[C@@H](COC(=O)C(C)c3ccc(CC(C)C)cc3)O2)c(=O)[nH]c1=O` (stereo partly shown) [T30], the “Cell Survival Rate (increased percentage of cell survival compared with the Group of 5-FU)” value [7] is reported as 39%-47%, the “Cell Survival Rate (increased percentage of cell survival compared with the Group of 5-FU)” value [8] is reported as 45%-53% and the “Cell Survival Rate (increased percentage of cell survival compared with the Group of 5-FU)” value [1] is reported as 54%-61%. The “Cell Survival Rate (increased percentage of cell survival compared with the Group of 5-FU)” value [2] was 44%-51% and the “Cell Survival Rate (increased percentage of cell survival compared with the Group of 5-FU)” value [3] was 39%-46%.

For `Cc1cn([C@H]2C[C@H](OC(=O)OC(C)C)[C@@H](COC(=O)OC(C)C)O2)c(=O)[nH]c1=O` [T22], the activation at 1 µM [4] was 2 to 7%, the activation at 10 µM [4] was 10 to 17% and the activation at 100 µM [4] was 9 to 16%.

In the case of `CC(=O)NC[C@H]1O[C@@H](n2cc(C)c(=O)[nH]c2=O)C[C@@H]1OC(C)=O` [T17], the activation at 1 µM [4] is reported as 15 to 25%, the activation at 10 µM [4] is reported as 18 to 26% and the activation at 100 µM [4] is reported as 25 to 35%. For the same compound, the activation at 200 µM [4] was 30 to 40% and the activation at 500 µM [4] was 35 to 45%.

Compound `Cc1cn([C@H]2C[C@H](OC(=O)C(C)C)[C@@H](COC(=O)C(C)C)O2)c(=O)[nH]c1=O` [T13] has an activation at 1 µM [4] of 15 to 25%, an activation at 10 µM [4] of 40 to 50% and an activation at 100 µM [4] of 25 to 35%.

Work on `Cc1cn([C@H]2C[C@H](O)[C@@H](COC(=O)OC3CC3)O2)c(=O)[nH]c1=O` [T11] yielded an activation at 1 µM [4] of -5 to 0%, an activation at 5 µM [4] of 11 to 16% and an activation at 10 µM [4] of 27 to 33%. The activation at 50 µM [4] was 35 to 45%, the activation at 100 µM [4] was 38 to 45% and the activation at 200 µM [4] was 38 to 46%. The activation at 500 µM [4] was 40 to 50% and the activation at 1000 µM [4] was 7 to 14%.
